Literature values in patent US10314873B2, “Method of treatment of diseases using hoodia extracts” (HADASIT MEDICAL RESEARCH SERVICES & DEVELOPMENT LTD., priority 2008, dated 2019).

Experiments:
hypothalamic neurons = conditions: icv injection of purified P57
Liver = conditions: P57 studies

C/C=C(\C)C(=O)O[C@@H]1C[C@H]2[C@@H](CC=C3C[C@@H](O[C@H]4C[C@H](OC)[C@H](O[C@H]5C[C@H](OC)[C@H](O[C@@H]6O[C@H](C)[C@@H](O)[C@H](OC)[C@H]6O)[C@@H](C)O5)[C@@H](C)O4)CC[C@@]32C)[C@@]2(O)CC[C@H](C(C)=O)[C@@]12C [P57, (3β,12β,14β)-3-[(O-6-Deoxy-3-O-methyl-β-D-glucopyranosyl-(1→4)-O-2,6-dideoxy-3-O-methyl-β-D-ribohexopyranosyl-(1→4)-2,6-dideoxy-3-O-methyl-β-D-ribo-hexopyranosyl)oxy]-14-hydroxy-12-[[(2E)-2-methyl-1-oxo-2-butenyl]oxy]pregn-5-en-20-one]
increase of ATP content in hypothalamic neurons (hypothalamic neurons): 50-150% | reduction of liver ATP content (Liver): about 60%
